The experiment relates to normotonen narkotisierten Ratte. Nature of the experiment: Blood pressure measurement in the normotensive anaesthetised rat. It is filed as in vivo. The following applies: mean; for WD min x̄ (Wirkungsdauer): time from onset of change until return to baseline. As to the method:
1. Blutdruckmessung an der normotonen narkotisierten Ratte
Männliche IVANOVAS-Ratten (300 - 340 g) des Stammes SIV 50 wurden durch Applikation von 66 mg/kg a-Chloralose (1,1 % Lösung, 0,6 ml/100 g) und 20 mg:kg Aprobarbital in die Schwanzvene narkotisiert. Die Trachea wurde kannuliert um die Spontanatmung zu erleichtern. Die Messung des Blutdruckes erfolgte blutig über einen in die Rechte A. carotis eingebundenen PE-Schlauch auf konventionelle Weise. Mittels eines Dreiwegehahnes konnte dieser PE-Schlauch zur i.a.-Applikation der Prüfsubstanzen benutzt werden, wobei jeweils ein Volumen von 0,1 ml injiziert wurde. Durch Nachspülen mit 0,9 % NaCl gelangten die Substanzen über die Vertebralarterie auch in Richtung Zentralnervensystem bevor die Verteilung im allgemeinen Kreislauf erfolgte.
Zahlenmäßig ausgewertet wurde die maximale systolische und diastolische Blutdrucksenkung sowie die maximale Änderung der Herzfrequenz. Als Wirkdauer galt die Zeit vom Eintritt der Veränderung bis zum Erreichen des Ausgangswertes.

The source of these data is patent publication EP0037495A1, “Pyrimidyl quinazolines, process for their preparation and pharmaceutical compositions containing them” (CASSELLA Aktiengesellschaft, priority 1980, dated 1981).

For `COc1cc2nc(N3CCN(C(=O)c4ccco4)CC3)nc(N)c2cc1OC` [Prazosin], where the note is “maximal change of heart rate, dose 0.1 mg/kg i.a.”, the “HF Δ s/min x̄” value worked out at 0 s/min. Moreover, for the setting “dose 0.1 mg/kg i.a.”, the “WD min x̄ (Wirkungsdauer)” value is listed as 60 min.
With `COc1cc2nc(N3CCN(c4c([N+](=O)[O-])c(=O)n(C)c(=O)n4C)CC3)nc(N)c2cc1OC` [*], the “WD min x̄ (Wirkungsdauer)” value (dose 0.01 mg/kg i.a.) was determined as 36 min.
